± gives the expanded uncertainty stated by the source.
Experiment: mn = molality of the nth substance listed, in mol/kg
Conditions: 101 kPa, Liquid; for speed of sound: Frequency=3 MHz, Sing-around technique in a fixed-path interferometer; for mass density: Vibrating tube method

Question: What does the source list for `CC(=O)NCC(=O)O` [N-acetylglycine] + O?
Answer: speed of sound (288.15 K, m1 = 0.0203): 1467.5 ± 1.2 m/s; speed of sound (288.15 K, m1 = 0.06014): 1469.4 ± 1.2 m/s; speed of sound (288.15 K, m1 = 0.1002): 1471.4 ± 1.2 m/s; speed of sound (288.15 K, m1 = 0.1403): 1473.3 ± 1.2 m/s; speed of sound (288.15 K, m1 = 0.1695): 1474.8 ± 1.2 m/s; speed of sound (288.15 K, m1 = 0.2002): 1475.9 ± 1.2 m/s; mass density (288.15 K, m1 = 0.0203): 1000.3 ± 0.17 kg/m3; mass density (288.15 K, m1 = 0.06014): 1001.63 ± 0.17 kg/m3; mass density (288.15 K, m1 = 0.1002): 1002.81 ± 0.17 kg/m3; mass density (288.15 K, m1 = 0.1403): 1004 ± 0.17 kg/m3; mass density (288.15 K, m1 = 0.1695): 1004.75 ± 0.17 kg/m3; mass density (288.15 K, m1 = 0.2002): 1005.54 ± 0.17 kg/m3; speed of sound (293.15 K, m1 = 0.0203): 1483.6 ± 1.2 m/s; speed of sound (293.15 K, m1 = 0.06014): 1485.4 ± 1.2 m/s; speed of sound (293.15 K, m1 = 0.1002): 1486.8 ± 1.2 m/s; speed of sound (293.15 K, m1 = 0.1403): 1488.9 ± 1.2 m/s; speed of sound (293.15 K, m1 = 0.1695): 1489.9 ± 1.2 m/s; speed of sound (293.15 K, m1 = 0.2002): 1491.4 ± 1.2 m/s; mass density (293.15 K, m1 = 0.0203): 999.25 ± 0.17 kg/m3; mass density (293.15 K, m1 = 0.06014): 1000.6 ± 0.17 kg/m3; mass density (293.15 K, m1 = 0.1002): 1001.87 ± 0.17 kg/m3; mass density (293.15 K, m1 = 0.1403): 1003.13 ± 0.17 kg/m3; mass density (293.15 K, m1 = 0.1695): 1003.97 ± 0.17 kg/m3; mass density (293.15 K, m1 = 0.2002): 1004.9 ± 0.17 kg/m3; speed of sound (298.15 K, m1 = 0.0203): 1497.7 ± 1.2 m/s; speed of sound (298.15 K, m1 = 0.06014): 1499 ± 1.2 m/s; speed of sound (298.15 K, m1 = 0.1002): 1500.5 ± 1.2 m/s; speed of sound (298.15 K, m1 = 0.1403): 1502.1 ± 1.2 m/s; speed of sound (298.15 K, m1 = 0.1695): 1503.3 ± 1.2 m/s; speed of sound (298.15 K, m1 = 0.2002): 1504.2 ± 1.2 m/s; mass density (298.15 K, m1 = 0.0203): 997.843 ± 0.17 kg/m3; mass density (298.15 K, m1 = 0.06014): 999.038 ± 0.17 kg/m3; mass density (298.15 K, m1 = 0.1002): 1000.36 ± 0.17 kg/m3; mass density (298.15 K, m1 = 0.1403): 1001.63 ± 0.17 kg/m3; mass density (298.15 K, m1 = 0.1695): 1002.73 ± 0.17 kg/m3; mass density (298.15 K, m1 = 0.2002): 1003.76 ± 0.17 kg/m3; speed of sound (303.15 K, m1 = 0.0203): 1510 ± 1.2 m/s; speed of sound (303.15 K, m1 = 0.06014): 1511.4 ± 1.2 m/s; speed of sound (303.15 K, m1 = 0.1002): 1512.4 ± 1.2 m/s; speed of sound (303.15 K, m1 = 0.1403): 1514.2 ± 1.2 m/s; speed of sound (303.15 K, m1 = 0.1695): 1514.9 ± 1.2 m/s; speed of sound (303.15 K, m1 = 0.2002): 1515.6 ± 1.2 m/s; mass density (303.15 K, m1 = 0.0203): 996.325 ± 0.17 kg/m3; mass density (303.15 K, m1 = 0.06014): 997.499 ± 0.17 kg/m3; mass density (303.15 K, m1 = 0.1002): 998.819 ± 0.17 kg/m3; mass density (303.15 K, m1 = 0.1403): 1000.17 ± 0.16 kg/m3; mass density (303.15 K, m1 = 0.1695): 1001.25 ± 0.17 kg/m3; mass density (303.15 K, m1 = 0.2002): 1002.59 ± 0.17 kg/m3; speed of sound (308.15 K, m1 = 0.0203): 1520.3 ± 1.2 m/s; speed of sound (308.15 K, m1 = 0.06014): 1521.5 ± 1.2 m/s; speed of sound (308.15 K, m1 = 0.1002): 1522.6 ± 1.2 m/s; speed of sound (308.15 K, m1 = 0.1403): 1524 ± 1.2 m/s; speed of sound (308.15 K, m1 = 0.1695): 1524.9 ± 1.2 m/s; speed of sound (308.15 K, m1 = 0.2002): 1525.8 ± 1.2 m/s; mass density (308.15 K, m1 = 0.0203): 994.871 ± 0.17 kg/m3; mass density (308.15 K, m1 = 0.06014): 996.032 ± 0.17 kg/m3; mass density (308.15 K, m1 = 0.1002): 997.262 ± 0.17 kg/m3; mass density (308.15 K, m1 = 0.1403): 998.641 ± 0.17 kg/m3; mass density (308.15 K, m1 = 0.1695): 999.567 ± 0.16 kg/m3; mass density (308.15 K, m1 = 0.2002): 1001.25 ± 0.17 kg/m3
